Experimental data taken from patent US20040082503A1, “Methods for treatment of diabetes using peptide analogues of insulin” (Neurocrine Biosciences, Inc., priority 1998, published 2004).

Columns and labels:
[1] = tested on: Insulin B chain (9-23) specific mouse (NOD) T cell clones; assay: Proliferation of insulin-specific NOD T cell clones (summary over clones); assay type: cell-based; details: four NOD derived T cell clones; 50 μM peptide
Experimental: (§1) Insulin specific NOD T cell lines were established by culturing lymphocytes isolated from islet-infiltrating populations by in vitro stimulation with either porcine insulin at 25 μg/ml and irradiated NOD islet cell in the presence of irradiated NOD spleen cells as antigen presenting cells and cytokines. To obtain the infiltrating lymphocytes the following procedures were performed (see Wegmann et al., Eur. J. Immunol. 24:1853, 1994): the pancreas from the NOD mouse was digested with collagenase and individual islets were isolated manually. The infiltrating lymphocytes were then obtained by mild trypsin digestion of the islets. The insulin specific T cell lines or clones were propagated by serial stimulation in the presence of NOD spleen cells, porcine insulin and lymphokines. Clones were obtained by limiting dilution of the B chain (9-23) specific T cell lines in the presence of the antigen presenting cells and porcine insulin at 25 μg/ml. Wells with a growing population of cells following limiting dilution were expanded in appropriate medium, and after one cycle of growth were tested for reactivity to the B chain (9-23) peptide of insulin by evaluating the proliferative response.
(§2) Insulin B chain (9-23) (SEQ ID NO:2) specific mouse (NOD) T cell clones were isolated from infiltrated islets as described in Example 2. Peptide analogues with single alanine substitutions were prepared as described in Example 1. The effect of each analogue on T cell proliferation was then evaluated using an assay performed in 96-well flat bottom microtiter plates (see Daniel et al., Eur. J. Immunol. 25:1056, 1995). Briefly 25,000 T cell clones along with 1 million irradiated NOD spleen cells were cultured in the presence of 50 μg/ml of insulin B chain 9-23 peptide or any of the alanine substituted peptides listed below in triplicate sets. The plates were incubated for a total of 72 hours in 7% carbon dioxide atmosphere with a pulse of 1 μCi/well of tritiated thymidine for the last 6-8 hours of culture. Cells were harvested on a glass fiber filter and the associated radioactivity was counted in a liquid scintillation counter. Results are expressed as mean counts per minute of triplicate wells.
NOD T cell clones were incubated in the presence of 50 μM of either the native B chain (9-23) peptide or NBI-6024. The data in Table 3 represent the mean of triplicate sample±standard error of the mean. Within Table 3, S.I. (Stimulation Index)=proliferation (cpm) in the presence of the peptide/proliferation (cpm) in medium alone.

[2] = tested on: Insulin specific NOD T cell clone PD6-4.3; assay: Proliferation of insulin-specific NOD T cell clone PD6-4.3; assay type: cell-based, mouse (NOD); details: 50 μg/ml peptide, 72 h, 3H-thymidine; no antigen 163 cpm
Experimental: as §1, §2

[3] = tested on: Insulin specific NOD T cell clone PD12-4.4; assay: Proliferation of insulin-specific NOD T cell clone PD12-4.4; assay type: cell-based, mouse (NOD); details: 50 μg/ml peptide, 72 h, 3H-thymidine; no antigen 350 cpm
Experimental: as §1, §2

[4] = tested on: Insulin specific NOD T cell clone PD12-4.29; assay: Proliferation of insulin-specific NOD T cell clone PD12-4.29; assay type: cell-based, mouse (NOD); details: 50 μg/ml peptide, 72 h, 3H-thymidine; no antigen 789 cpm
Experimental: as §1, §2

[5] = tested on: Insulin specific NOD T cell clone PD12-4.34; assay: Proliferation of insulin-specific NOD T cell clone PD12-4.34; assay type: cell-based, mouse (NOD); details: 50 μg/ml peptide, 72 h, 3H-thymidine; no antigen 231 cpm
Experimental: as §1, §2

DQ8 antigens = assay: Binding to DQ8 antigens
[6] = tested on: Soluble NBI-6024 induced T cells (IL-2, IL-4, IL-5 production); assay: Cytokine production by NBI-6024 induced T cells (ELISA); assay type: cell-based, NOD mouse; details: for Cytokine IL-2: 48 h supernatant
Experimental: FIG. 18 is a histogram, showing a comparison of the cytokines produced by immune cells induced by A^16,19 (NBI-6024) peptide in the presence or absence of adjuvant. Groups of NOD mice were immunized with the NBI-6024 alone or emulsified with CFA. The cytokines IL-2 and IL-4, as indicated, were measured at 25 μM of NBI-6024 and expressed as pg/mL after subtracting the background values.
To determine the type of T cells produced following soluble administration of NBI-6024, the culture supernatants from immune lymphoid cells were removed 48 hours following the initiation of culture and the levels of various cytokines measured using standard ELISA technology. […] Within Table 8, values are expressed in pg/ml as mean of triplicates±SEM.

[7] = soluble NBI-6024 induced T cells cultured with NBI-6024 5 μM
[8] = soluble NBI-6024 induced T cells cultured with NBI-6024 25 μM

Substance | Proliferative response over medium only (background) [1] | Response (cpm) of T cell clone PD6-4.3 [2] | Response (cpm) of T cell clone PD12-4.4 [3] | Response (cpm) of T cell clone PD12-4.29 [4] | Response (cpm) of T cell clone PD12-4.34 [5] | Binding affinity to DQ8 antigens (DQ8 antigens) | Cytokine production profile ([6]; NBI-6024 emulsified with CFA (control)) | Cytokine production profile ([6]; T cells from mice immunized with soluble NBI-6024) | Cytokine IL-4 ([6]; soluble NBI-6024 induced T cells cultured with NBI-6024 1 μM, 0: 134 ± 0) | Cytokine IL-5 ([6]; soluble NBI-6024 induced T cells cultured with NBI-6024 1 μM, 0: 1,814 ± 332) | Cytokine IL-2 ([6]; soluble NBI-6024 induced T cells cultured with NBI-6024 1 μM) | Cytokine IL-4 [6, 7] | Cytokine IL-5 [6, 7] | Cytokine IL-2 [6, 7] | Cytokine IL-4 [6, 8] | Cytokine IL-5 [6, 8] | Cytokine IL-2 [6, 8]
Native 9-23: native peptide, residues 9-23 of human insulin B chain (SEQ ID NO:2) (SHLVEALYLVCGERG; Residues 9-23 of human insulin B chain; listed as Homo sapiens) [reference compound] | significant response | 10463 cpm | 10000 cpm | 14820 cpm | 3614 cpm | – | – | – | – | – | – | – | – | – | – | – | –
NBI-6024: insulin B chain 9-23 with alanine substitutions at positions 16 and 19 (SHLVEALALVAGERG) | little or no proliferation over medium only (background) | – | – | – | – | binds with similar affinity | did induce the expected Th1-cytokine profile (IL-2) | produced the Th2 cytokines, interleukin-4 (FIG. 18) and interleukin-5 (Table 8), and not the Th1-derived interleukin-2 | 684 ± 92 pg/mL | 9,999 ± 503 pg/ml | <15 pg/mL | 1,653 ± 51 pg/ml | 23,496 ± 684 pg/ml | <15 pg/mL | 2,102 ± 85 pg/ml | 28,062 ± 141 pg/ml | <15 pg/mL
